Laboratory results published in patent US20240252586A1, “ENGINEERED ANTIMICROBIAL PEPTIDES AND USAGE THEREOF” (priority 2021, published 2024).
Where two headings read alike, the source gives them in different places. Where no end group is shown, it is not given here.

What was measured:
[1] = system: CoNS non-epidermidis; experiment: Broth microdilution MIC, PJI isolates (Example 1); type: cell-based, coagulase-negative staphylococci; settings: RPMI; N = 53
Procedure: (§1) Imipenem, levofloxacin, tigecycline, linezolid, vancomycin, oxacillin, ceftazidime, colistin, and amikacin were tested as comparators. Testing was conducted in accordance with guidelines from the Clinical and Laboratory Standards Institute (CLSI; M7 and M100). Test organisms comprised reference strains from the American Type Culture Collection, the Centers for Disease Control Antibiotic Reference Bank and clinical isolates from the Micromyx repository.

[2] = system: Escherichia coli ATCC 25922; experiment: Broth microdilution MIC, QC of stock (Study 2); type: cell-based
Procedure: (§2) The activity of SEQ ID NO: 1 stocks against relevant ATCC reference isolates was determined by broth microdilution for QC purposes in accordance with guidelines described by the Clinical and Laboratory Standards Institute.
(§3) The wells in columns 2-12 in a standard 96-well microdilution plate were filled with 150 μL of 0.002% P-80 PBS. […] Serial two-fold dilutions were conducted through column 11. The wells of column 12 contained no drug and served as the organism growth control well. This would become the “mother” plate from which “daughter” or test plates would be prepared. The daughter plates were loaded with 190 μL of CAMHB+0.002% polysorbate-80 (P-80), or RPMI with 0.002% P-80 by hand-pipetting.
(§4) A standardized inoculum of each evaluated organism was prepared per CLSI methods. Growth from agar plates was used to prepare a 0.5 McFarland suspension in saline for each organism. The 0.5 McFarland suspensions were diluted 1:20 in saline, and the diluted suspensions were used as the test inocula. The inocula were then transferred to daughter plates by delivering 10 μL of standardized inoculum into each well of the daughter plate, resulting in a final concentration ranging between 2.5×10^5 to 5×10^5 CFU/mL per well.
(§5) Plates were stacked and covered with a lid on the top plate, placed into plastic bags, and incubated at 35° C. for 16-20 hr in ambient air. Growth in the microplates was viewed from the bottom using a plate viewer. […] The MIC was read and recorded as the lowest concentration of drug (SEQ ID NO: 1) that inhibited visible growth of the organism.

[3] = system: Pseudomonas aeruginosa ATCC 27853; experiment: Broth microdilution MIC, QC of stock (Study 2); type: cell-based
Procedure: as §2, §3, §4, §5

[4] = system: Staphylococcus aureus ATCC 29213; experiment: Broth microdilution MIC, QC of stock (Study 2); type: cell-based
Procedure: as §2, §3, §4, §5

[5] = system: P. aeruginosa; experiment: Broth microdilution MIC, PJI isolates (Example 1); type: cell-based, Pseudomonas aeruginosa; settings: RPMI; N = 20
Procedure: as §1

[6] = system: S. epidermidis; experiment: Broth microdilution MIC, PJI isolates (Example 1); type: cell-based, Staphylococcus epidermidis; settings: RPMI
Procedure: as §1

[7] = system: Staphylococcus aureus SH1000; settings: both concentrations (1 and 5 mg/mL)
Procedure: A bone tunnel in the tibial canal was created using a drill with a 1.2 mm or 1.6 mm tungsten carbide drill bit. The bone tunnel was then dried and treated to stimulate acute human PJI following primary arthroplasty. A Kirschner wire implant of 2 cm long with a 0.3 cm long top hook was placed in the bone tunnel and the wound was closed. Prior to closure of the superficial skin layer, 0.1 mL of 2×10^6 planktonic Staphylococcus aureus SH1000 (CFU/rabbit) in saline was injected into the joint space. A closure was performed, and a biofilm was allowed to become established over a period of 2 days.
At 2 days post infection, irrigation and debridement (I&D) was performed on the infected joint. […] Additionally, an intravenous administration of an antibiotic was administered. Bacterial burden was determined by colony forming unit (CFU) analysis.
Animals were observed up to 28 days. […] When an animal was sick or needed to be euthanized, the implant and a part of the tibia was collected post mortem and bacterial burden was determined by CFU analysis.
The following parameters and endpoints were evaluated in this study: X-ray for proper implant placement, bacterial burden by colony forming unit analysis (CFU), general clinical signs, detailed clinical signs, body weights, body weight changes, temperature, mortality, blood culture, erythrocyte sedimentation rate (ESR), and C-reactive protein levels (CRP). […]

[8] = system: P. aeruginosa CDC 0515; settings: RPMI
Procedure: FIC test ranges were set based on broth microdilution MIC test data. FIC assay plates were prepared in accordance with CLSI guidelines for broth microdilution susceptibility testing; automated liquid handlers, and multi-channel pipettes were used to conduct serial dilutions and liquid transfers.
SEQ ID NO: 1 was tested at two concentration ranges depending on the test media. All organisms tested in CAMHB 0.002% P-80 were tested from 0.015-16 μg/mL; when tested in RPMI 0.002% P-80, the range tested was 0.004-4 μg/mL. For each SEQ ID NO: 1 mother, wells across the standard 96-well microdilution plate were filled with 150 μL of sterile saline 0.002% P-80 in columns 2 through 12. A 300 μL aliquot at 20× the highest final concentration of each dilution range to be tested, was added to each well in column 1 of the plate. The Biomek 3000 was used to make eleven 2-fold serial dilutions horizontally across each row of the plate columns 2 through 11.
The daughter plates were then completed using the Biomek FX to transfer 5 μL of drug solution from each well of the SEQ ID NO: 1 mother plates to the corresponding well in each daughter plate in a single step. […] The preparation of the daughter plates was performed for each media type; two times in total as all organisms were tested in both media types.
A standard inoculum for each organism was prepared per CLSI method. Colonies were picked up from the primary plate and a suspension was prepared equal to 0.5 McFarland turbidity standard. The suspensions were additionally diluted 1:10 in the appropriate broth. A 10 μL standardized inoculum was delivered into each well using the Biomek 3000 from low to high concentration. These inoculations yielded a final cell concentration in the daughter plates of approximately 5×10^5 CFU/mL in each well. […] Exemplary checkboard panels are seen in Table 5 and Table 6. Plates were incubated at 35° C. for 16-20 hr.
The MIC of the horizontal agent (row H) and the MIC of the vertical agent (column 12) were recorded and the wells of the growth-no growth interface for wells containing agents in combination at varying ratios were recorded by row. […] Pinpoint trailing was not interpreted as growth.
For each relevant row of the panel, the FICI was calculated as:
FICdrug A/MICdrug A+FICdrug B/MICdrug=FICI
Mean FICI values were determined for each combination tested by averaging the FICI values as observed on each row of the checkerboard assay (See Table 9, e.g., if there were FICI values for B-G, those FICI values were added together and divided by the number of rows the FICI values which in this case is 6 to get the mean FICI value for that combination).
Using the criteria described by: Odds FC. 2003. Synergy, antagonism, and what the chequerboard puts between them. J Antimicrob Chemother 52(1):1, the mean FICI for the combination was interpreted as follows: ≤0.5=synergy, >0.5-4=additive/indifferent, and >4=antagonism. […] An interpretation of indifference is consistent with growth inhibition at concentrations at or slightly below/above the MICs of the individual agents alone, resulting in a FICI value of >0.5 but […].

## RRWVRRVRRVWRRVVRVVRRWVRR [SEQ ID NO: 1]
[1]
  MIC50: 0.06 µg/mL
  MIC90: 0.06 µg/mL
[2]; CAMHB + 0.002% P-80
  MIC: 2 µg/mL
[2]; RPMI + 0.002% P-80
  MIC: 0.5 µg/mL
[3]; CAMHB + 0.002% P-80
  MIC: 4 µg/mL
[3]; RPMI + 0.002% P-80
  MIC: 0.5 µg/mL
[4]; CAMHB + 0.002% P-80
  MIC: 4 µg/mL
[4]; RPMI + 0.002% P-80
  MIC: 0.12 µg/mL
[5]
  MIC50: 1 µg/mL
  MIC90: 1 µg/mL
[6]; All S. epidermidis (N = 104)
  MIC50: 0.12 µg/mL
  MIC90: 0.12 µg/mL
[6]; MRSE (N = 58)
  MIC50: 0.12 µg/mL
  MIC90: 0.12 µg/mL
[6]; MSSE (N = 46)
  MIC50: 0.12 µg/mL
  MIC90: 0.12 µg/mL
[7]
  body weight vs control group: no statistically significant bodyweight differences
[8]; checkerboard row A, with Sodium Bicarbonate at 100
  FICI: 2.5
[8]; checkerboard row B, with Sodium Bicarbonate at 50
  FICI: 2.25
[8]; checkerboard row C, with Sodium Bicarbonate at 25
  FICI: 1.125
